Reference: patent publication US20080255078A1, “Triphenylethylene Compounds Useful as Selective Estrogen Receptor Modulators” (priority 2005, published 2008)

| SMILES | melting point |
| --- | --- |
| CCC(=C(c1ccc(O)cc1)c1ccc(O)cc1)c1cccc(/C=C/C(=O)O)c1 [Example 1, (2E)-3-{3-[1-Ethyl-2,2-bis(4-hydroxyphenyl)ethenyl]phenyl}-2-propenoic acid] | 280 to 281 °C |
| CCC(=C(c1ccc(O)cc1)c1ccc(O)cc1)c1cccc(-c2c(C)noc2C)c1 [Example 3, 4,4′-{2-[3-(3,5-Dimethyl-4-isoxazolyl)phenyl]-1-butene-1,1-diyl}diphenol] | 173 to 174 °C |
